Assay results: a melting point compilation (Tetko et al.; mined from patent text by program, amines drawn as free bases though some values may be those of a salt)

First: CC(=O)SC(CC(=O)c1cccc(Cl)c1)C(=O)O (configuration not stated)
Second: CC(=O)C(=CC(=O)O)c1ccccc1
The melting point of the first is higher: 85 to 86 °C for the first, 70 °C for the second.

`COC(=O)/C(C#N)=C/c1cc(OC)c(OCCCl)cc1[N+](=O)[O-]` and `COc1cc([N+](=O)[O-])c(N)cc1C(=O)N1CCCC1` cannot be ordered by melting point: 157 to 160 °C for the first, 159 to 162 °C for the second.

First: O=C(O)c1ccc(NCCCCc2cccs2)cc1
Second: CCCNc1cc(C(=O)O)cc(S(N)(=O)=O)c1Oc1ccccc1
The melting point of the first is lower: 137 to 140 °C for the first, 223 to 224 °C for the second.

Compared with `COc1ccc(N)cc1Oc1ncc(Cl)cc1Cl`, `COc1ccc(C=Cc2cc(OC)c3c(c2)OCO3)cc1O` is higher in melting point: 95 to 105 °C for the first, 145 to 150 °C for the second.

Compared with `NC(=O)Cc1ccc2ccn(C3CCN(CCc4ccc(F)cc4F)CC3)c2c1`, `COc1ccc(Cn2cc(C(=O)O)c(=O)c3ccc(N4CCNCC4)cc32)cc1` is higher in melting point: 157 to 158 °C for the first, 230 to 235 °C for the second.

First: N#CCCNC(=O)c1cccc(-c2ccc3c(c2)N(c2ccc(Cl)cc2Cl)CCCC3)c1
Second: O=S(=O)(c1ccc(Cl)cc1)N1CCC2(C=Cc3ccccc32)CC1
The melting point of the first is lower: 139 to 142 °C for the first, 179 to 181 °C for the second.

Compared with `Cc1cccc(C(=O)NN(C(=O)c2ccccc2)C(C)(C)C)c1`, `CCOC(=O)c1cnn2c1c(Nc1ccccc1)nc1ccccc12` is higher in melting point: 111 to 114 °C for the first, 145 to 147 °C for the second.

First: O=C1c2ccc(Cl)cc2CC1Br (configuration not stated)
Second: N[C@@H]1CCC(=O)N[C@@H]1c1cccc(OC(F)(F)F)c1 (relative stereo)
The melting point of the first is lower: 69 to 76 °C for the first, 126 to 130 °C for the second.

First: Nc1nnc(CCC2CCCCC2)s1
Second: CN1C(=O)[C@H](NC(=O)CC2CCCCC2)N=C(c2ccccc2)c2ccccc21
The melting point of the first is higher: 253 to 255 °C for the first, 144 to 146 °C for the second.

First: Cc1cc(NCCO)c2[nH]nc(Br)c2n1
Second: CCc1nc2c(o1)C(=O)C(C)=C(NCCN(C)C)C2=O
The melting point of the first is higher: 210 to 214 °C for the first, 135 °C for the second.

First: C=CCOC1OC(C(O)CO)C(OCc2ccccc2)C1O (configuration not stated)
Second: O=C1NCCCCC1Cc1ccccc1 (configuration not stated)
The melting point of the first is lower: 84 to 85 °C for the first, 99 to 104 °C for the second.

First: COc1ccc(Nc2ccc3c(n2)CC(C)(C)CC3=O)cc1
Second: CCC(=O)N1CCN(C(=O)COC2c3ccccc3C(=O)N2c2ccc3ccc(OC)nc3n2)CC1 (configuration not stated)
The melting point of the first is lower: 149 to 150 °C for the first, 160 °C for the second.

Compared with `CCOC(=O)c1c[nH]c2cc(C(=O)NCCc3ccc(Cl)cc3)nn2c1=O`, `Cc1c(C(=O)O)cnn1-c1nc(-c2cccc(Cl)c2)cs1` is lower in melting point: greater than 300 °C for the first, 258 °C for the second.

Compared with `CCOC(=O)Cc1c(C)n(-c2ncnc3ccccc23)c2ccc(OC)cc12`, `CC(=O)OCCn1cc(C2=C(c3cn(C)c4ccccc34)C(=O)OC2=O)c2ccccc21` is higher in melting point: 121 to 123 °C for the first, 198 to 199 °C for the second.

First: CCCCCCCCc1ccc(OCC(O)Cn2ccc3cc(C(N)=O)ccc32)cc1 (configuration not stated)
Second: Cc1ccc2nc(-c3ccc(C#N)cc3)cn2c1
The melting point of the first is lower: 118 to 119 °C for the first, 225 to 226 °C for the second.

Compared with `C[C@@H]1S[C@@H](C(=O)Nc2ccc(CN3CCC(=O)CC3)cc2)Cc2cc3c(cc2C1=O)OCO3`, `O=C1N(Cc2nc3ccccc3s2)c2ccccc2C12COc1cc3c(cc12)OCCO3` (configuration not stated) is lower in melting point: 199 to 201 °C for the first, 164 to 166 °C for the second.

Compared with `C=CCNc1nc(NC(C)C)nc2ccc([N+](=O)[O-])cc12`, `CNC(=C[N+](=O)[O-])NCc1ccc(Cl)nc1` is higher in melting point: 150 to 151 °C for the first, 181 to 183 °C for the second.

Compared with `CCc1c(Br)c2ccccn2c1C(=O)c1cc(Br)c(O)c(Br)c1`, `Cc1nnc(-c2ccc3occ(-c4cccc(CO)c4)c3c2)o1` is lower in melting point: 195 °C for the first, 115 to 116 °C for the second.

First: COc1cc(Nc2c(C#N)cnc3sc(-c4ccc(C=O)cc4)cc23)c(Cl)cc1Cl
Second: N#Cc1ccc(Oc2ccccc2)cn1
The melting point of the first is higher: greater than 240 °C for the first, 84 to 85 °C for the second.

Compared with `CC(=O)NC(C)Cc1cc(C)c(C)cc1CC(=O)O` (configuration not stated), `CC(C)(C)OC(=O)NC1(CCO)CC1` is higher in melting point: 67 to 69 °C for the first, 93 to 95 °C for the second.

First: CON(C)S(=O)(=O)c1ccccc1S(N)(=O)=O
Second: CN1CCN(C2=Nc3ccccc3N=C(c3ccccc3)C2)CC1
The melting point of the first is lower: 136 to 140 °C for the first, 155 to 157 °C for the second.
